The text below walks through data of patent US20250388623A1, “PEPTIDE INHIBITOR AND USE THEREOF” (CHENGDU BRILLIANT INSPIRATION BIOTHERAPEUTICS CO., LTD, priority 2022, published 2025).

Type in all cases: in vivo
The subject of one test is P-Smad2/3. As to the kind of experiment: P-Smad2/3 content in lung tissue, BLM mouse fibrosis model. The following applies: single intratracheal dose 3 mg/kg on Day 7, lung 24 h later, BLM model group = 100.00. A digest of the protocol: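 Male C57/6J mice (6–8 weeks, 18–20 g, n=8/group) received intratracheal bleomycin 0.7 USP/kg on Day 1, then a single intratracheal 3 mg/kg peptide dose or saline on Day 7. Values are expressed as the treated/model content ratio.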

The subject of another test is active TGF-β. Kind of test: Active TGF-β level in lung tissue, bleomycin (BLM) mouse lung fibrosis model. The following applies: single intratracheal dose 3 mg/kg on Day 7, lung 24 h later, BLM model group = 100.00. In outline: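 Male C57/6J mice (6–8 wk) received intratracheal bleomycin 0.7 USP/kg on Day 1, then a single intratracheal peptide dose of 3 mg/kg on Day 7, with saline for the model group. The value is the ratio of peptide group to model group.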

Test [1] has as its system mouse lung fibrosis model induced by bleomycin (BLM). As to the kind of experiment: Inflammatory and fibrotic pathology (HE, Masson's trichrome) in BLM mouse fibrosis model. Details: scale not given here. The following applies: for Inflammatory score Mean: 3 mg/kg intratracheal twice weekly x4 from Day 8, Day 21, HE staining, BLM model 2.25, negative control 0.36; for Fibrosis score Mean: 3 mg/kg intratracheal twice weekly x4 from Day 8, Day 21, Masson's trichrome, BLM model 3.25, negative control 1.01. On the procedure:
This Example was to assess the inhibitory effect of polypeptides on fibrotic pathology. 6- to 8-week-old male C57/6J mice weighing 18-20 g were used as subjects for the study. The experimental animals were randomized into groups, 6 animals in each group. On the day of modeling (Day 1), a single dose of 0.7 USP/kg of BLM solution was administered via the tracheal route to the BLM group and each peptide-treated group to induce the model. The negative control group received an equal volume of saline. Treatment dosing started on Day 8. Each peptide-treated group received the peptide drug intratracheally at a dosage of 3 mg/kg, while the positive control group received the peptide of SEQ ID NO: 50 at the same dosage, and the administration frequency was twice a week, with a total of 4 administrations. The BLM model group and the negative control group received an equal volume of solvent (saline) as a control. The procedure followed that described in Example 4.
On Day 21, the lung tissues were dissected, washed with saline to remove blood stains, and dried with gauze. Histopathological analysis was then performed on the dissected lung tissues. The lung tissues were perfused with 0.5 mL of paraformaldehyde via the trachea and placed in 4 mL of paraformaldehyde. A small amount of gauze was added to ensure the lung tissues were completely immersed in the fixative solution. The tissues were fixed for more than 24 hours. One lobe of the left lung and four lobes of the right lung were trimmed to the maximum coronal plane, placed in an embedding cassette, dehydrated overnight, and then paraffin-embedded to make 3 μm sections. An autostainer (Leica, model ST5010) was used for Hematoxylin (Herst, lot no. 201905)-Eosin (Chron, lot no.2018070301) (HE) staining, and MASSON'S trichrome (Celestineblue, Chron, lot no. MKCH8129; Aniline blue, Yuanye, lot no. H70J11S115483; Ponceau, Sigma, lot no. SHBM2047) staining. After mounting the sections, they were scanned using a digital panoramic scanner (Zhiyue, model WS-10). For each lung lobe, ≤10 visual fields were captured under a 20× magnification. The severity of inflammation and the severity of fibrosis were assessed using HE staining and Masson's trichrome staining, respectively, to evaluate the inhibitory effects of the polypeptides on inflammatory infiltration and fibrotic deposition at pathological fibrotic sites.

Bridge positions count the residues as written; N and C are the ends. Peptide text beside a SMILES is read from it.

As for `CC(=O)N[C@H](C(=O)N[C@H]1CSSC[C@@H](C(=O)O)NC(=O)[C@H](CC(N)=O)NC(=O)[C@H](CC(=O)O)NC(=O)[C@H](CCC(=O)O)NC(=O)[C@H](C)NC(=O)[C@H](CC(=O)O)NC1=O)[C@@H](C)O` [SEQ ID NO: 43, Ac-Thr-cyclo[Cys-Asp-Ala-Glu-Asp-Asn-Cys]] (Ac-TCDAEDNC-OH; disulfide 2-8), the “P-Smad2/3 content in lung tissue, ratio to model group, Mean(%)” value in the test with P-Smad2/3 stood at 49.30%. The “active TGF-β content in lung tissue, ratio to model group, Mean(%)” value in the test on active TGF-β stood at 75.92%. In test [1], the “Inflammatory score Mean” value worked out at 1.46 and the “Fibrosis score Mean” value came to 2.59.

On to “Ac-TQDAEDN-NH2 [SEQ ID NO: 06, Ac-Thr-Gln-Asp-Ala-Glu-Asp-Asn-NH2]”, for which the “P-Smad2/3 content in lung tissue, ratio to model group, Mean(%)” value in the test with P-Smad2/3 came to 54.89%. For the same compound, the “active TGF-β content in lung tissue, ratio to model group, Mean(%)” value in the test on active TGF-β is 76.76%. Also, in test [1], the “Inflammatory score Mean” value stood at 1.65 and the “Fibrosis score Mean” value is 2.65.

“Ac-TQDAEDNTASH-NH2 [SEQ ID NO: 33, Ac-Thr-Gln-Asp-Ala-Glu-Asp-Asn-Thr-Ala-Ser-His-NH2]”: in the test with P-Smad2/3, the “P-Smad2/3 content in lung tissue, ratio to model group, Mean(%)” value is given as 71.09%. Also, in the test with active TGF-β, the “active TGF-β content in lung tissue, ratio to model group, Mean(%)” value is recorded as 86.61%. Further, in test [1], the “Inflammatory score Mean” value was determined as 1.27 and the “Fibrosis score Mean” value was found to be 2.64.

`C[C@@H]1NC(=O)[C@H]([C@@H](C)O)NC(=O)[C@H](CC(N)=O)NC(=O)[C@H](CC(=O)O)NC(=O)[C@H](CCC(=O)O)NC(=O)[C@@H]2CCCN2C(=O)[C@H](CC(=O)O)NC(=O)[C@H](CCC(N)=O)NC(=O)[C@H]([C@@H](C)O)NC(=O)[C@H](CO)NC1=O` [SEQ ID NO: 46, cyclo[Thr-Gln-Asp-Pro-Glu-Asp-Asn-Thr-Ala-Ser]] (cyclo(ASTQDPEDNT)): in the test with P-Smad2/3, the “P-Smad2/3 content in lung tissue, ratio to model group, Mean(%)” value came out at 74.60%. Further, in the test on active TGF-β, the “active TGF-β content in lung tissue, ratio to model group, Mean(%)” value is recorded as 79.36%.

As for `C[C@@H]1NC(=O)[C@H](CC(=O)O)NC(=O)[C@H](CCC(N)=O)NC(=O)[C@H]([C@@H](C)O)NC(=O)[C@H](CC(N)=O)NC(=O)[C@H](CC(=O)O)NC(=O)[C@H](CCC(=O)O)NC1=O` [SEQ ID NO: 40, cyclo[Thr-Gln-Asp-Ala-Glu-Asp-Asn]] (cyclo(AEDNTQD)), the “P-Smad2/3 content in lung tissue, ratio to model group, Mean(%)” value in the test on P-Smad2/3 (3 mg/kg) is listed as 83.20%. For the same compound, the “active TGF-β content in lung tissue, ratio to model group, Mean(%)” value in the test with active TGF-β (3 mg/kg) was found to be 68.27%.

For the compound “Ac-TQDAEDPTA-NH2 [SEQ ID NO: 22, Ac-Thr-Gln-Asp-Ala-Glu-Asp-Pro-Thr-Ala-NH2]”, the “P-Smad2/3 content in lung tissue, ratio to model group, Mean(%)” value in the test with P-Smad2/3 came out at 55.32%. For the same compound, the “active TGF-β content in lung tissue, ratio to model group, Mean(%)” value in the test on active TGF-β is 82.72%. Besides, in test [1], the “Inflammatory score Mean” value is reported as 1.43 and the “Fibrosis score Mean” value was 2.33.

In the case of “Ac-TQDPEDNTAS-NH2 [SEQ ID NO: 26, Ac-Thr-Gln-Asp-Pro-Glu-Asp-Asn-Thr-Ala-Ser-NH2]”, the “P-Smad2/3 content in lung tissue, ratio to model group, Mean(%)” value with P-Smad2/3 came out at 76.78%. The “active TGF-β content in lung tissue, ratio to model group, Mean(%)” value with active TGF-β is on record as 83.44%. Moreover, in test [1], the “Inflammatory score Mean” value worked out at 0.95 and the “Fibrosis score Mean” value is on record as 2.05.

For “Ac-TQDAEDPTAS-NH2 [SEQ ID NO: 25, Ac-Thr-Gln-Asp-Ala-Glu-Asp-Pro-Thr-Ala-Ser-NH2]”, the “P-Smad2/3 content in lung tissue, ratio to model group, Mean(%)” value in the test on P-Smad2/3 worked out at 65.07%. Besides, in the test with active TGF-β, the “active TGF-β content in lung tissue, ratio to model group, Mean(%)” value stood at 86.63%. Also, in test [1], the “Inflammatory score Mean” value worked out at 1.39 and the “Fibrosis score Mean” value worked out at 2.47.

As for `CC(=O)N[C@H](C(=O)N[C@H]1CSSC[C@@H](C(N)=O)NC(=O)[C@H](CC(N)=O)NC(=O)[C@H](CC(=O)O)NC(=O)[C@H](CCC(=O)O)NC(=O)[C@H](C)NC(=O)[C@H](CC(=O)O)NC1=O)[C@@H](C)O` [SEQ ID NO: 44, Ac-Thr-cyclo[Cys-Asp-Ala-Glu-Asp-Asn-Cys]-NH2] (Ac-TCDAEDNC-NH2; disulfide 2-8), the “P-Smad2/3 content in lung tissue, ratio to model group, Mean(%)” value in the test with P-Smad2/3 is reported as 79.93%. The “active TGF-β content in lung tissue, ratio to model group, Mean(%)” value with active TGF-β was 81.73%.
